Measurements reported in patent US11427605B2, “Crystalline forms of 5-chloro-N4-[-2-(dimethylphosphoryl) phenyl]-N2-{2-methoxy-4-[4-(4-methylpiperazin-1-yl) piperidin-1-yl] phenyl} pyrimidine-2,4-diamine” (ARIAD Pharmaceuticals, Inc., priority 2014, dated 2022).
≈ marks a conversion by molar mass, not a printed value. Read-outs that look alike come from different tables or passages of the source. Each block holds one compound with its values, some of them ahead of it.

What was measured:
[1] = Intrinsic dissolution rate (IDR); type: physicochemical
Experimental: For measuring the intrinsic dissolution rate (IDR), the starting material was tableted using a mini-IDR compression system (pION/Heath Scientific). For preparation of the tablets, approximately 11 mg of material was pressed in the cylindrical hole of a passivated stainless steel die, to a uniform, flat surface, with an exposed area of 0.072 cm^2. The pressure applied was approximately 50 bar for 3-5 min. The sample die was inserted in a cylindrical Teflon rotating disk carrier containing an embedded magnetic stirring bar at its base. The die/stirrer assembly was placed in a flat bottomed glass vial, ready for dissolution analysis.
The dissolution rate was measured in 20 mL of solvent (medium) and the path length of the UV meter was 2 mm. Applied stirring speed during measurement was 100 rpm. Measurements were performed at 20° C. and 37° C.
In the first series, the IDR of Forms A and B were determined in monoplicate. […] In FIGS. 30-37, the IDRs are plotted for comparison between the forms and the same medium or between various media and the same form. The IDR of each of Forms A and B in the various media increases with increasingly acidic media (see FIGS. 34-37).
In several cases, the results were counter-intuitive. […] The results of these additional experiments are plotted in FIGS. 38-42.

[2] = Dissolution rate from a powdered sample in water; type: physicochemical; conditions: powder, 37° C.
Experimental: For determining the dissolution rate from a powdered sample, approximately 5 mg of brigatinib (Form A or B) was weighed into a 5 mL dissolution vial and the dissolution probe was inserted into the vial. Subsequently, 4 mL of water was added at the same time the measurement was initiated. The concentration was recorded for 20 h.
For measuring the dissolution rate from powder, the test was only performed in water for Forms A and B at 37° C., as the solubilities of Forms A and B were […] enough to permit detection.

[3] = Dynamic vapor sorption (DVS); type: physicochemical; conditions: for Hygroscopicity: general statement
Experimental: In a […] vapor sorption (DVS) experiment with Form A, the sample was first dried at 0% RH for 6 hours. Then, the relative humidity was cycled from 5% to 95% RH (sorption), then to 5% RH (desorption) at a constant temperature of 25° C., with a hold time of 60 minutes per step.
In three DVS experiments, the relative humidity was varied as follows:
Expt. 4: 0% for 6 h→5% for 1 h→15% for 1 h→25-85% gradient over 2 h→95 for 5 h RH

[4] = Compression tests; type: physicochemical; conditions: 3 and 6 ton/cm^2 for one minute
Experimental: Compression tests were performed on brigatinib Form A in order to determine whether pressure-induced phase transformations or loss of crystallinity occurred. The press used was an Atlas Manual 25 Ton Hydraulic Press (from SPECAC). Experiments were carried out at 3 and 6 ton/cm^2 for one minute in each case.

[5] = Variable humidity XRPD; type: physicochemical
Experimental: The temperature variation rate was 10° C./min.
The relative humidity was increased from the starting amount, brought up to the maximum, then dried back to the minimum value. The data collection time was 41 min at each step, time starting after equilibration of the relative humidity.
The peaks shifts were reversible at RH of about 30%. A sample of Form A was then exposed to 80% RH for 15 h. The peaks shifts had occurred after 90 min, and the extent of the shifts remained constant throughout the exposure at 80% RH for 15 h. Upon return to 10% RH, the peaks shifted to their original position. To investigate the amount of water adsorbed, a new sample of Form A was exposed for 2 h at 80% and a TGMS of this sample was measured.
For Form B, the relative humidity was measured at 30° C. The RH % values measured were 10, 30, 50, 60, 65, 70, 75, and 80%. […] At 80% RH the conversion to Form C was completed. Upon desorption, Form C dehydrates to Form B, starting at about 30% RH. At 10% RH the conversion to Form B was completed.
For Form C, a hydrate, the relative humidity was measured at 30° C. The experiment was performed starting at the maximum RH and dehydrated, then rehydrated back up to the maximum value. The RH % values measured were 10, 15, 20, 25, 30, 35, 40, 60, and 80%. Upon desorption, Form C dehydrated to Form B, starting at about 25% RH. At 10% RH, the conversion to Form B was complete. Upon sorption, Form B converted to Form C, starting at about 60% RH. At 80% RH the conversion to Form C was complete. The results are consistent with the corresponding experiments of Form B.
For Form D, a hydrate, the relative humidity was measured at 30° C. The experiment was performed starting at the maximum RH and dehydrated, then rehydrated back up to the maximum value. The RH % values measured were 10, 15, 20, 25, 30, 35, 40, 60, and 80%. […] Form C dehydrated to Form B, starting at about 20% RH. At 10% RH, the conversion to Form B was complete. Upon sorption, Form B converted to Form C, starting at about 40% RH. At 80% RH, the conversion to Form C was complete.

[6] = 24 h
Experimental: (§1) For each medium, a standard 1.8 mL screw cap vial was charged with circa 40 mg of the starting material, 400 μl of solvent and a magnetic stirring bar (in the cases of chloroform and dichloromethane 200 μl of solvent were used). The vials were subsequently closed and equilibrated at the corresponding temperature for 24 h while stirring. The liquid part was retrieved with a syringe and filtered (0.5 micron filter); the isolated mother liquors were diluted to two dilutions selected according to the calibration curve. Quantities of the API in the diluted solutions were determined via HPLC analysis (DAD). […] Subsequently, the separated solids were measured wet by XRPD to confirm the solid form of which the solubility was measured.

[7] = ground for 5 hours
Experimental: Grinding experiments were performed to obtain amorphous brigatinib. […] In a mechanical stress test via grinding, a sample of Form A was ground for 2, 3, 4 and 5 hours. Recovered solids were analyzed by XRPD and HPLC.
Grinding. Two grinding experiments were performed on samples of Form A with two different durations (30 and 60 min) at a frequency of 30 Hz. […] Mechanical stress via grinding experiments were also performed, with grinding times of 2, 3, 4, and 5 hours.

[8] = for solid form (XRPD, analyzed wet): slurry in Water, 25° C.
Experimental: In a second set of slurry experiments, the same amounts of Form A and Form B were weighed into 1.8 mL vials, and charged with a stirring bar. After addition of the solvent, the slurries were placed at 25° C. and 50° C., under stirring. Material from the slurries was sampled at the time points of 2, 4 and 14 days (sampling from the same vial per solvent and per temperature). These materials were analyzed wet by XRPD and digital imaging.

[9] = physchem; conditions: thermodynamic from solid; for solubility at 24 h: Solub
Experimental: as §1

[10] = physchem; conditions: thermodynamic from solid
[11] = not given; remark: listed apart in the source
[12] = 37 °C, pH 1, simulated gastric fluid
[13] = 30° C., sample started as the labelled form
[14] = VT-XRPD, sample started as the labelled form

Amount that could be dissolved in the stomach together with a 200 ml glass of water ([1]; numbers are only indicative): about 50 mg
Concentration reached in IDR measurement ([1]; pH 1.0 and SGF, within 5 min): ~250 µg/mL
Solid form stability when slurried (IDR experiments) ([1]; water, SGF, and pH 1.0 aqueous buffer): remains stable
Concentration at 10 min [2]: 70 µg/mL
Concentration at 20 h [2]: 140 µg/mL
Hygroscopicity (DVS) ([3]; 5% to 95% RH, then to 5% RH, 25° C., 60 minutes per step): not hygroscopic
Hygroscopicity [3]: not hygroscopic
Phase transformation under pressure (XRPD) [4]: no phase transitions or peak shifts
Phase transition with humidity (VH-XRPD) ([5]; 30 and 60° C.): did not show any phase transition
Mass loss by TGMS after humidity exposure (water adsorbed) ([5]; exposed for 2 h at 80% RH): 0.35%
Water molecules adsorbed after humidity exposure ([5]; exposed for 2 h at 80% RH): 0.1 water molecules
Solub [6]: 0.1 ± 0.0 mg/mL
Solid state after grinding (XRPD) [7]: almost completely amorphous
Phase transformation on heating (VT-XRPD) (25 to 200° C.): did not reveal any phase transformation
solid form (XRPD, analyzed wet) ([8]; 2 Days): A + D
solid form (XRPD, analyzed wet) ([8]; 4 days): A + D
solubility at 24 h ([9]; 25 °C, pH 1, simulated gastric fluid): 60.4 ± 2.9 mg/mL (≈ 103 mM)
solubility at 24 h ([9]; 25 °C, pH 4.5, aqueous buffer): 24.4 ± 1.2 mg/mL (≈ 41.8 mM)
solubility at 24 h ([9]; 25 °C, pH 6.8, aqueous buffer): 8.6 ± 1.4 mg/mL (≈ 14.7 mM)
solubility at 24 h ([9]; 25 °C, water): 0.11 mg/mL (≈ 0.188 mM)
solubility at 24 h [9, 12]: 70.6 ± 1.5 mg/mL (≈ 121 mM)
solubility [9, 12]: 70 mg/mL (≈ 120 mM)
solubility at 24 h ([9]; 37 °C, pH 4.5, aqueous buffer): 26 mg/mL (≈ 44.5 mM)
solubility ([9]; 37 °C, pH 4.5, aqueous buffer): 26 mg/mL (≈ 44.5 mM)
solubility ([9]; 37 °C, pH 6.5, aqueous buffer): 6 mg/mL (≈ 10.3 mM)
solubility at 24 h ([9]; 37 °C, pH 6.8, aqueous buffer): 6.2 ± 0.1 mg/mL (≈ 10.6 mM)
solubility at 24 h ([9]; 37 °C, simulated gastric fluid): 51.7 ± 0.6 mg/mL (≈ 88.5 mM)
solubility ([9]; simulated gastric fluid): 52 mg/mL (≈ 89 mM)
solubility ([10]; pH 1.7, simulated gastric fluid): 177 mg/mL (≈ 303 mM)
solubility ([10]; pH 2.4, aqueous buffer): 329 mg/mL (≈ 563 mM)
solubility ([10]; pH 3.6, aqueous buffer): 173 mg/mL (≈ 296 mM)
solubility ([10]; pH 6.2, aqueous buffer): 8 mg/mL (≈ 13.7 mM)
solubility ([10]; pH 7.2, aqueous buffer): 11 mg/mL (≈ 18.8 mM)
SMILES: COc1cc(N2CCC(N3CCN(C)CC3)CC2)ccc1Nc1ncc(Cl)c(Nc2ccccc2P(C)(C)=O)n1 [Form A, brigatinib]
Purity by HPLC after compression [4]: comparable to that of the starting material

Solid form after DVS cycle (XRPD) ([3]; Expt. 1 (5%→95%→65% RH)): hydrated Form C
Water adsorbed during sorption ([3]; Expt. 1 (5%→95%→65% RH), between 45-95% RH): 2.26 molecules of water
Change in mass during desorption after about 75% RH ([3]; Expt. 2): about 5.2%
Gained mass during desorption until about 25% RH ([3]; Expt. 2): 4.2%
Mass increase at 85% RH during desorption ([3]; Expt. 2): 17.4%
Maximum change in mass as water molecules ([3]; Expt. 2): 5.6 water molecules
Water molecules during desorption after about 75% RH ([3]; Expt. 2): about 1.7 water molecules
Water molecules during desorption until about 25% RH ([3]; Expt. 2): 1.4 water molecules
Solid form after DVS cycle (XRPD) ([3]; Expt. 2 (5%→95%→5% RH)): mixture of Forms B and C
Mass change, first sorption step ([3]; Expt. 2 (5%→95%→5% RH), between 45-85% RH): 6.45%
Water molecules, first sorption step ([3]; Expt. 2, between 45-85% RH): 2.1 water molecules
Total change in mass, second sorption step ([3]; Expt. 2, between 85% and 95% RH): 16.7%
Total change in mass at 95% RH ([3]; Expt. 3): 15.88%
Total change in mass at 95% RH as water molecules ([3]; Expt. 3): 5.15 water molecules
Solid form after DVS cycle (XRPD) ([3]; Expt. 3 (5%→95% RH)): Forms B+C
Change in mass, first step ([3]; Expt. 3 (5%→95% RH), between 45-85% RH): 5.59%
Water molecules, first step ([3]; Expt. 3, between 45-85% RH): 1.8 water molecules
Maximum change in mass as water molecules ([3]; Expt. 4): 7.2 water molecules
Solid form after DVS cycle (XRPD) ([3]; Expt. 4): Forms C+D
Maximum change in mass ([3]; Expt. 4 (longer equilibration; up to 95% RH for 5 h)): 22.2%
Hygroscopicity [3]: hygroscopic
Humidity level at which Form B converts to the hydrated Forms C and D ([5]; 30° C., reversible): above 60 % RH
RH at which Form B starts to convert to hydrated Form C (sorption) [5, 13]: about 65 % RH
RH at which Form C starts to dehydrate to Form B (desorption) [5, 13]: about 30 % RH
RH at which conversion to Form B was complete (desorption) [5, 13]: 10 % RH
RH at which conversion to Form C was complete (sorption) [5, 13]: 80 % RH
Temperature at which (partial) conversion to Form A was observed [14]: 150 °C
Temperature at which conversion to Form A was complete [14]: 155 °C
Temperature of solid-solid transition to Form A (ambient humidity, increasing temperature, not reversible): about 150 °C
Solid form after humidity exposure ([11]; 90% RH for one day): converted to a mixture of Forms C and D
Solid form conversion in slurry with Form A (XRPD, wet) ([8]; all organic solvents and water at 37° C., sampled at 2, 4 and 14 days): converted to Form A
Solid form conversion in slurry with Form A (XRPD, wet) ([8]; water at 25° C. (aqueous environment), 2 and 4 days): converted to Form D
SMILES: COc1cc(N2CCC(N3CCN(C)CC3)CC2)ccc1Nc1ncc(Cl)c(Nc2ccccc2P(C)(C)=O)n1 [Form B, brigatinib]
Solid form conversion on slurrying (XRPD, wet) ([11]; room temperature, water, HCl buffer of pH 1.0): converted to the heptahydrate Form D after 45 min
